In patent US9102686B2, “5,6,7,8,9,10-hexahydro-6,10-epimino[1,2,4]triazolo[4,3-a]azocines as P2X7 modulators” (Janssen Pharmaceutica NV, priority 2013, dated 2015) one finds IC50 and Ki data, which are given here for 11 molecules.

SMILES strings stand for the structures.

For experiment [1], the target named is T1, rat P2X7 (Rattus norvegicus (Rat), UniProt Q64663). As to the kind of experiment: Ca2+ flux (FLIPR) in 1321N1 cells expressing recombinant rat P2X7 channel. Particulars: rat P2X7, 250 μM BzATP. The class given is cell-based. The procedure:
(§1) P2X7 Antagonism in Recombinant hP2X7 Cells: (a) Ca^2+ Flux (b) Radioligand Binding
(§2) (A) Ca^2+flux: 1321N1 cells expressing the recombinant human, rat or mouse P2X7 channel was cultured in HyQ DME/(HyClone/Dulbecco's Modified Eagle Medium) high glucose supplemented with 10% Fetal Bovine Serum (FBS) and appropriate selection marker. Cells were seeded at a density of 25000 cells/well (96-well clear bottom black walled plates) in 100 μl volume/well. On the day of the experiment, cell plates were washed with assay buffer, containing (in mM): 130 NaCl, 2 KCl, 1 CaCl2, 1 MgCl2, 10 HEPES, 5 glucose; pH 7.40 and 300 mOs. After the wash, cells were loaded with the Calcium-4 dye (Molecular Device) and incubated in the dark for 60 minutes. Test compounds were prepared at 250× the test concentration in neat DMSO. Intermediate 96-well compound plates were prepared by transferring 1.2 μL of the compound into 300 μL of assay buffer. A further 3× dilution occurred when transferring 50 μL/well of the compound plate to 100 μL/well in the cell plate. Cells were incubated with test compounds and dye for 30 minutes. […] The fluorescence change was measured 180 seconds after adding the agonist.
(In general: A change in cytosolic calcium serves as a functional read-out for many receptors and channels.)

For experiment [2], the target named is T2, human P2X7 (Homo sapiens (Human), UniProt Q99572). Put plainly: Radioligand binding, human P2X7-1321N1 cell membranes, tritiated A-804598. To be noted: human P2X7-1321N1 membranes, tracer tritiated A-804598, 1 hour 4° C. The procedure:
as §1
(§3) (B) Radioligand binding: human or rat P2X7-1321N1 cells were collected and frozen @−80° C. On the day of the experiment, cell membrane preparations were made according to standard published methods. […] The compound can be prepared as described in the literature. […] The assay was terminated by filtration (GF/B filters pre-soaked with 0.3% PEI) and washed with washing buffer (Tris-HCl 50 mM). The IC50 generated in the binding assay was corrected for tracer concentration and affinity of the tracer to derive at the affinity (Ki) of the test compounds.

The target of experiment [3] is T2, human P2X7. Put plainly: Ca2+ flux (FLIPR) in 1321N1 cells expressing recombinant human P2X7 channel. The class given is cell-based. To be noted: human P2X7, 250 μM BzATP. The procedure: as §1, §2
In experiment [4] the target is T1, rat P2X7. As to the kind of experiment: Radioligand binding, rat P2X7-1321N1 cell membranes, tritiated A-804598. To be noted: rat P2X7-1321N1 membranes, tracer tritiated A-804598, 1 hour 4° C. Here is the method:
as §1, §3

T1 sequence (Q64663 whole entry): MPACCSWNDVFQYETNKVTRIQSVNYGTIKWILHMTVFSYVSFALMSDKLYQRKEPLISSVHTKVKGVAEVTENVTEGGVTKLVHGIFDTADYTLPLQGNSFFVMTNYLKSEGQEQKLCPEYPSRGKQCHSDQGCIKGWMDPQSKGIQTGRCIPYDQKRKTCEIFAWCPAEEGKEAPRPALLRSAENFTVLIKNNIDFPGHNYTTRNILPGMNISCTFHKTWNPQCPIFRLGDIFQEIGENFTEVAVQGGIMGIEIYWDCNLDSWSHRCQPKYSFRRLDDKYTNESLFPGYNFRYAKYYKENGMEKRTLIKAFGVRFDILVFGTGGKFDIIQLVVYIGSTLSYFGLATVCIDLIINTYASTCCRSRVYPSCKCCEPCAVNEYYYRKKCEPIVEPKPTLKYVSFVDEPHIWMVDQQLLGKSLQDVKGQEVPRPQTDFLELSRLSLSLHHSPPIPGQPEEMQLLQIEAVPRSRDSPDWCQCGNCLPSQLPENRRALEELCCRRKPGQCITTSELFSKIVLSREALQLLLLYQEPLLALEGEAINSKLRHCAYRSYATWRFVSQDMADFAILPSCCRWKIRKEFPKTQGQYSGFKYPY
T2 sequence (Q99572 whole entry): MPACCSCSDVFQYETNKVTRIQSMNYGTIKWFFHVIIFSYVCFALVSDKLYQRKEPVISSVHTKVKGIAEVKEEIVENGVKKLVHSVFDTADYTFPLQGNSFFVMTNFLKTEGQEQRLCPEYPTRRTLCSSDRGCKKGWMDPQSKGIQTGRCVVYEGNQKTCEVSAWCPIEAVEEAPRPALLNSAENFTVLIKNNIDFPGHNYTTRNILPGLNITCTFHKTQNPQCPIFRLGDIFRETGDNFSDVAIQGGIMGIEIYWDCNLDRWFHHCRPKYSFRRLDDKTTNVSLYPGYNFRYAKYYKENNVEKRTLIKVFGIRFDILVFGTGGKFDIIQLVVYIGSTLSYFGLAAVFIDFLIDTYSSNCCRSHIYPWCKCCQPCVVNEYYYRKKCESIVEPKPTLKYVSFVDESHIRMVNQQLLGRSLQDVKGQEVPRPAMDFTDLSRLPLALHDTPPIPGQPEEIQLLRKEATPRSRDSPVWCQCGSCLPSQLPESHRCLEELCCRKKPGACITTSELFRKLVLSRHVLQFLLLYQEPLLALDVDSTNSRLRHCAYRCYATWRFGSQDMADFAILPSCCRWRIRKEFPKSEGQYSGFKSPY

What is called IC50 is the concentration that gives 50% inhibition. For orientation: Ki means the equilibrium dissociation constant of an inhibitor or competing ligand from its target. Higher therefore signals a looser hold on the target. Turning to `O=C(c1cccc(C(F)(F)F)c1Cl)N1[C@H]2CC[C@@H]1c1nnc(-c3ccc(F)cc3)n1C2` [Example 40, (6S,9R)-10-{[2-Chloro-3-(trifluoromethyl)phenyl]carbonyl}-3-(4-fluorophenyl)-6,7,8,9-tetrahydro-5H-6,9-epimino[1,2,4]triazolo[4,3-a]azepine], the figures for the IC50 at rat P2X7 [1] and on human P2X7 [3] were 10000 nM and 12.6 nM, respectively. In addition, the Ki on human P2X7 [2] was determined as 21.9 nM; on rat P2X7 [4], 35.5 nM.

For the molecule `O=C(c1cccc(C(F)(F)F)c1Cl)N1[C@H]2CC[C@@H]1c1nnc(-c3ccccn3)n1C2` [Example 41, (6S,9R)-10-{[2-Chloro-3-(trifluoromethyl)phenyl]carbonyl}-3-pyridin-2-yl-6,7,8,9-tetrahydro-5H-6,9-epimino[1,2,4]triazolo[4,3-a]azepine], the values for the IC50 at rat P2X7 [1] and at human P2X7 [3] were 1580 nM and 6.3 nM, respectively. The Ki came out at 12.6 nM on human P2X7 [2] and 7.9 nM at rat P2X7 [4].

Regarding `O=C(c1cccc(C(F)(F)F)c1Cl)N1[C@H]2CC[C@@H]1c1nnc(-c3cnccn3)n1C2` [Example 42, (6S,9R)-10-{[2-Chloro-3-(trifluoromethyl)phenyl]carbonyl}-3-pyrazin-2-yl-6,7,8,9-tetrahydro-5H-6,9-epimino[1,2,4]triazolo[4,3-a]azepine], the IC50 on rat P2X7 [1] came out at 251 nM; at human P2X7 [3], 20 nM. For the same molecule, the inhibition constant Ki at human P2X7 [2] was 12.6 nM; on rat P2X7 [4] it was 7.9 nM.

In the case of `O=C(c1cccc(C(F)(F)F)c1Cl)N1[C@H]2CC[C@@H]1c1nnc(-c3ncccn3)n1C2` [Example 46, (6S,9R)-10-{[2-Chloro-3-(trifluoromethyl)phenyl]carbonyl}-3-pyrimidin-2-yl-6,7,8,9-tetrahydro-5H-6,9-epimino[1,2,4]triazolo[4,3-a]azepine], the IC50 at rat P2X7 [1] was 253 nM; at human P2X7 [3] it was 15.2 nM. Besides, the Ki stood at 15.8 nM at human P2X7 [2] and 6.3 nM at rat P2X7 [4].

`O=C(c1cccc(C(F)(F)F)c1Cl)N1[C@H]2CC[C@@H]1c1nnc(-c3cscn3)n1C2` [Example 49, (6S,9R)-10-{[2-Chloro-3-(trifluoromethyl)phenyl]carbonyl}-3-(1,3-thiazol-4-yl)-6,7,8,9-tetrahydro-5H-6,9-epimino[1,2,4]triazolo[4,3-a]azepine]: the IC50 on rat P2X7 [1] was 13.5 nM; on human P2X7 [3] it was 5 nM. Further, the Ki at human P2X7 [2] was 20 nM; on rat P2X7 [4], 4 nM.

For `Cc1cc(-c2nnc3n2C[C@@H]2CC[C@H]3N2C(=O)c2cccc(C(F)(F)F)c2Cl)[nH]n1` [Example 51, (6S,9R)-10-{[2-Chloro-3-(trifluoromethyl)phenyl]carbonyl}-3-(3-methyl-1H-pyrazol-5-yl)-6,7,8,9-tetrahydro-5H-6,9-epimino[1,2,4]triazolo[4,3-a]azepine], the IC50 at rat P2X7 [1] is 4100 nM; on human P2X7 [3] it was 14.4 nM. Moreover, the Ki at human P2X7 [2] came out at 39.8 nM; at rat P2X7 [4] it was 7.9 nM.

For `O=C(c1ccc(F)c(C(F)(F)F)c1Cl)N1[C@H]2CC[C@@H]1c1nnc(-c3cscn3)n1C2` [Example 52, (6S,9R)-10-{[2-Chloro-4-fluoro-3-(trifluoromethyl)phenyl]carbonyl}-3-(1,3-thiazol-4-yl)-6,7,8,9-tetrahydro-5H-6,9-epimino[1,2,4]triazolo[4,3-a]azepine], the IC50 at rat P2X7 [1] was determined as 131 nM; at human P2X7 [3], 10.2 nM. In addition, the results for the Ki on human P2X7 [2] and at rat P2X7 [4] were 31.6 nM and 6.3 nM, respectively.

Take `Cc1c(C(=O)N2[C@H]3CC[C@@H]2c2nnc(-c4cscn4)n2C3)cccc1C(F)(F)F` [Example 53, (6S,9R)-10-{[2-Methyl-3-(trifluoromethyl)phenyl]carbonyl}-3-(1,3-thiazol-4-yl)-6,7,8,9-tetrahydro-5H-6,9-epimino[1,2,4]triazolo[4,3-a]azepine]: the IC50 on rat P2X7 [1] worked out at 3860 nM; at human P2X7 [3] it was 3.1 nM. The results for the Ki on human P2X7 [2] and on rat P2X7 [4] were 12.6 nM and 7.9 nM, respectively.

`O=C(c1ccc(Cl)c(F)c1Cl)N1[C@H]2CC[C@@H]1c1nnc(-c3cscn3)n1C2` [Example 54, (6S,9R)-10-[(2,4-Dichloro-3-fluorophenyl)carbonyl]-3-(1,3-thiazol-4-yl)-6,7,8,9-tetrahydro-5H-6,9-epimino[1,2,4]triazolo[4,3-a]azepine]: the IC50 was found to be 8910 nM at rat P2X7 [1] and 6.1 nM on human P2X7 [3]. Moreover, the results for the Ki at human P2X7 [2] and on rat P2X7 [4] were 25.1 nM and 7.9 nM, respectively.

On to `O=C(c1cccc(C(F)(F)F)c1Cl)N1[C@H]2CC[C@@H]1c1nnc(-c3cccs3)n1C2` [Example 61, (6S,9R)-10-{[2-Chloro-3-(trifluoromethyl)phenyl]carbonyl}-3-thiophen-2-yl-6,7,8,9-tetrahydro-5H-6,9-epimino[1,2,4]triazolo[4,3-a]azepine], for which the IC50 at rat P2X7 [1] was found to be 10000 nM; at human P2X7 [3], 2.6 nM. Besides, the affinity at human P2X7 [2] corresponds to a Ki of 4 nM.

`O=C(c1cccc(C(F)(F)F)c1Cl)N1[C@H]2CC[C@@H]1c1nnc(-c3ccc[nH]3)n1C2` [Example 62, (6S,9R)-10-{[2-Chloro-3-(trifluoromethyl)phenyl]carbonyl}-3-(1H-pyrrol-2-yl)-6,7,8,9-tetrahydro-5H-6,9-epimino[1,2,4]triazolo[4,3-a]azepine]: the values for the IC50 at rat P2X7 [1] and on human P2X7 [3] were greater than 10000 nM and 19.6 nM, respectively. This molecule also had a Ki at human P2X7 [2] of 6.3 nM.
